{"source": "patent US20170049676A1", "about": "“TOPICAL COMPOSITION” (Conopco, Inc., d/b/a UNILEVER, priority 2014, published 2017)", "key": {"heme oxygenase 1 (HO-1) [1]": {"test_system": "heme oxygenase 1 (HO-1)", "assay": "Heme oxygenase 1 (HO-1) ELISA on lysates of adult fibroblasts treated with isothiocyanates (Example 2)", "assay_type": "cell-based", "conditions": "primary human adult dermal fibroblast cells; for HO-1 (pg HO-1 per μg protein): 24 hours, vehicle control 179 ± 28; for production of HO-1 (in words): either at 1 or 2 μM", "experimental": "Primary human adult dermal fibroblast cells were routinely cultured and passaged in Dulbecco's Modified Eagle Medium (DMEM) supplemented with 10% foetal bovine serum (FBS), known as complete medium. Cells were plated out in 12-well tissue culture plates at a seeding density of 20,000 cells per well in 1 ml of low serum medium (DMEM supplemented with 1% FBS) and incubated at 37° C. in 5% CO2 for 96-120 hours before addition of the test samples.\nThe isothiocynates (all from Sigma-Aldrich Company) sulforaphane, allyl isothiocyanate (AITC), alpha-naphthyl isothiocyanate (NITC), phenethyl isothiocyanate (PEITC) and benzyl isothiocyanate (BITC) were prepared in dimethyl sulphoxide (DMSO) and diluted in DMEM supplemented with 1% FBS to a final concentration of 1 uM and 2 uM. Dermal fibroblasts were treated with 1 ml/well of the test samples for a period of 24 hours. A solvent vehicle was included in each experimental plate.\nAfter 24 hours the cell monolayer was washed with 1 ml of Dulbecco's Phosphate Buffered Saline (DPBS) per well and lysed with 400 μl of RIPA cell lysis buffer per well. The RIPA cell lysis buffer consisted of 150 mM NaCl, 1% v/v Nonidet-P40 (Igepal CA603 from Fluke 56741), 0.1% w/v sodium dodecyl sulphate (SDS) and 0.1% w/v sodium deoxycholate in 50 mM Tris-HCL buffer at pH 7.6. Protease inhibitor tablets were added to the lysis buffer immediately prior to use, at the manufacturer's recommended level. The plates received one freeze thaw cycle to ensure complete cell lysis. The lysates were subsequently clarified by scraping the samples off the plates with a pipette tip, centrifuging at 13,000 rpm for 10 minutes and transferring the supernatant into a 96 well microtitre plate. The clarified lysates were stored at −20° C. until needed.\nThe heme oxygenase 1 (HO-1) protein concentration of each cell lysate was assayed using the Human HO-1 ELISA Kit from Assay Designs (ADI-EKS-800, Enzo Life Sciences, UK) according to the manufacturer's instructions. Briefly, […] were diluted 1 in 10 in sample diluent, and 100 μl transferred to the pre-coated anti-HO-1 immunoassay plate. A 7-point recombinant HO-1 standard curve, ranging from 25 to 0.39 ng/ml, was also prepared in sample diluent. The immunoassay plate was incubated at room temperature for 30 minutes, washed six times with Wash Buffer, and incubated for a further 60 minutes at room temperature with 100 μl/well of anti-HO-1 antibody solution. The plate was washed as above and incubated for 30 minutes at room temperature with 100 μl/well of horseradish peroxidase (HRP)-conjugate solution. Again the plate was washed as above and 100 μl/well of 3,3′,5,5′-tetramethylbenzidine (TMB)-substrate added to each well for 15 minutes at room temperature in the dark. Following the addition of 100 μl/l well of stop solution, the absorbance was read at 450 nm on a microplate reader (Dynex MRX) and the unknown lysate levels of HO-1 were extrapolated from the standard curve. […]"}, "heme oxygenase 1 (HO-1) [2]": {"test_system": "heme oxygenase 1 (HO-1)", "assay": "Heme oxygenase 1 (HO-1) ELISA on lysates of fibroblasts treated 24 hours, normalised to total protein (Example 1)", "assay_type": "cell-based, human", "conditions": "8.4 mM controls", "experimental": "Primary human neonatal dermal fibroblast cells were cultured and passaged in Dulbecco's Modified Eagle Medium (DMEM) supplemented with 10% foetal bovine serum (FBS), known as complete medium. Cells were routinely plated out in 24-well tissue culture plates at a seeding density of 40,000 cells per well in 1 ml complete medium, and incubated at 37° C. in 5% CO2 for 48 hours before addition of the test solutions.\nAfter removal and storage of the tissue culture supernatant, the cell monolayer was washed with 1 ml of Dulbecco's Phosphate Buffered Saline (DPBS) per well and lysed with 200 μl cell lysis buffer per well. The cell lysis buffer consisted of 0.5% w/w Triton™ X100 (octyl phenol ethoxylate) and 1 mM ethylenediaminetetraacetic acid (EDTA) in phosphate buffer solution (PBS) at pH 7.2. Protease inhibitor tablets were added to the lysis buffer immediately prior to use, at the manufacturer's recommended level. The plates received one freeze thaw cycle to ensure complete cell lysis. The lysates were subsequently clarified by scraping the samples off the plates with a pipette tip and passing them through an Acrowell™ filter plate (Pall Corporation) using an Acroprep™ vacuum manifold (Pall Corporation) into a 96 well microwell plate. The clarified lysates were stored at −20° C. until needed.\nA set of eight standard solutions ranging from 0 to 800 μg/ml protein was prepared from the supplied 2 mg/ml bovine serum albumin (BSA) stock solution. 10 μl of standard or cell lysate was added to duplicate wells of a flat-bottomed, 96-well microtitre plate. The reagent solution was prepared according to the kit instructions from 50 parts reagent A and 1 part reagent B. 200 μl of the final reagent was added to each well of the microtitre plate. The plate was mixed, covered and incubated at 37° C. for 30 minutes and absorbance read at 540 nm. A protein standard curve was constructed and used to determine the protein concentration of each individual cell lysate.\nThe heme oxygenase 1 (HO-1) protein concentration of each cell lysate was assayed using the Human Total HO-1/HMOX1 DuoSet IC assay (R&D Systems Europe Ltd) according to the manufacturer's instructions. This DuoSet IC ELISA ([…]) contains the basic components required for the development of sandwich ELISAs to measure HO-1/HMOX1 (heme oxygenase (decycling) 1 which is a human gene that encodes for the enzyme heme oxygenase 1)/HSP32 (heat shock protein 32 (Hsp32), also known as heme oxygenase 1 (HO-1)) in cell lysates. An immobilized capture antibody specific for HO-1/HMOX1/HSP32 binds both phosphorylated and unphosphorylated HO-1/HMOX1/HSP32. […]"}, "[3]": {"test_system": "myrosinase from Raphanus sativus var. longipinnatus (daikon)", "conditions": "cited from earlier work; for reaction velocity, % of that with 500 μM ascorbic acid: 150 μM sinigrin; for effect on enzymic activity (in words): sinigrin as substrate, pH 6.0"}, "[4]": {"test_system": "primary human neonatal dermal fibroblast cells"}, "[5]": {"test_system": "rat basophilic leukemia (RBL-2H3) cells", "conditions": "cited from earlier work"}, "[6]": {"test_system": "primary human neonatal dermal fibroblast cells", "assay": "Cytotoxicity assay, ApoTox-Glo Triplex Assay (dead-cell protease, bis-AAF-R110)"}, "[7]": {"test_system": "enzyme from Salix alba (white willow)", "conditions": "cited from earlier work"}, "[8]": {"test_system": "myrosinase in partially purified extracts of six crucifers", "conditions": "cited from earlier work"}, "[9]": {"test_system": "enzymes from several other Brassica species", "conditions": "cited from earlier work"}}, "note": "Where two headings read alike, the source gives them in different places.", "data": [{"smiles": "C=CCN=C=S", "note": "[Allyl isocyanate control, Allyl isothiocyanate]", "values": [{"measurement": "HO-1 (pg HO-1 per μg protein)", "setting": "heme oxygenase 1 (HO-1) [1]; 1 μM", "value": "207 ± 13", "unit": "pg HO-1 per μg protein"}, {"measurement": "HO-1 (pg HO-1 per μg protein)", "setting": "heme oxygenase 1 (HO-1) [1]; 2 μM", "value": "243 ± 26", "unit": "pg HO-1 per μg protein"}, {"measurement": "production of HO-1 (in words)", "setting": "heme oxygenase 1 (HO-1) [1]", "value": "increase the production of HO-1"}, {"measurement": "Normalised HO-1 (vehicle = 100)", "setting": "heme oxygenase 1 (HO-1) [2]; dilution 1/50", "value": "335.46 ± 54.80"}, {"measurement": "Normalised HO-1 (vehicle = 100)", "setting": "heme oxygenase 1 (HO-1) [2]; dilution 1/100", "value": "383.74 ± 30.02"}, {"measurement": "inhibition of activity (in words)", "setting": "[3]; concentrations as high as 1 mM", "value": "did not significantly inhibit activity"}, {"measurement": "cytotoxicity to the fibroblast cells (in words)", "setting": "[4]", "value": "Neither myrosinase, nor the glucosinolate sinigrin, nor allyl isothiocyanate induce cytotoxicity on their own"}, {"measurement": "Cytotoxicity (RFU × 1000)", "setting": "[4]; human, 24 h, 0.168 mM", "value": "66.71 ± 4.63", "unit": "RFU × 1000"}]}, {"smiles": "S=C=Nc1cccc2ccccc12", "note": "[Alpha-naphthyl isothiocyanate (NITC), Alpha-naphthyl isothiocyanate]", "values": [{"measurement": "HO-1 (pg HO-1 per μg protein)", "setting": "heme oxygenase 1 (HO-1) [1]; 1 μM", "value": "195 ± 25", "unit": "pg HO-1 per μg protein"}, {"measurement": "HO-1 (pg HO-1 per μg protein)", "setting": "heme oxygenase 1 (HO-1) [1]; 2 μM", "value": "191 ± 31", "unit": "pg HO-1 per μg protein"}, {"measurement": "production of HO-1 (in words)", "setting": "heme oxygenase 1 (HO-1) [1]", "value": "increase the production of HO-1"}]}, {"smiles": "S=C=NCc1ccccc1", "note": "[Benzyl isothiocyanate (BITC), Benzyl isothiocyanate]", "values": [{"measurement": "HO-1 (pg HO-1 per μg protein)", "setting": "heme oxygenase 1 (HO-1) [1]; 1 μM", "value": "381 ± 50", "unit": "pg HO-1 per μg protein"}, {"measurement": "HO-1 (pg HO-1 per μg protein)", "setting": "heme oxygenase 1 (HO-1) [1]; 2 μM", "value": "730 ± 170", "unit": "pg HO-1 per μg protein"}, {"measurement": "production of HO-1 (in words)", "setting": "heme oxygenase 1 (HO-1) [1]", "value": "increase the production of HO-1"}]}, {"smiles": "S=C=NCCc1ccccc1", "note": "[Phenethyl isothiocyanate (PEITC), Phenethyl isothiocyanate]", "values": [{"measurement": "HO-1 (pg HO-1 per μg protein)", "setting": "heme oxygenase 1 (HO-1) [1]; 1 μM", "value": "429 ± 49", "unit": "pg HO-1 per μg protein"}, {"measurement": "HO-1 (pg HO-1 per μg protein)", "setting": "heme oxygenase 1 (HO-1) [1]; 2 μM", "value": "668 ± 101", "unit": "pg HO-1 per μg protein"}, {"measurement": "production of HO-1 (in words)", "setting": "heme oxygenase 1 (HO-1) [1]", "value": "increase the production of HO-1"}]}, {"smiles": "O=c1c(O)c(-c2ccc(O)c(O)c2)oc2cc(O)cc(O)c12", "note": "[Quercetin]", "values": [{"measurement": "Nrf2 translocation (in words)", "setting": "[5]; RBL-2H3 cells", "value": "translocate Nrf2 from cytoplasm into nucleus"}, {"measurement": "mast cell degranulation and release of histamine (in words)", "setting": "[5]", "value": "inhibit mast cell degranulation and subsequent release of histamine"}]}, {"smiles": "C=CCC(=NOS(=O)(=O)O)S[C@@H]1O[C@H](CO)[C@@H](O)[C@H](O)[C@H]1O", "note": "[Sinigrin control, sinigrin (2-propenyl or allyl glucosinolate)]", "values": [{"measurement": "Cytotoxicity (RFU × 1000)", "setting": "[6]; 8.4 mM controls in complete medium, dilution 1/50, second series (untreated cells 18.63)", "value": "80.94 ± 39.75", "unit": "RFU × 1000"}, {"measurement": "cytotoxicity to the fibroblast cells (in words)", "setting": "[6]; extract without heat treatment, single components on their own at comparable levels", "value": "Neither myrosinase, nor the glucosinolate sinigrin, nor allyl isothiocyanate induce cytotoxicity on their own"}, {"measurement": "Normalised HO-1 (vehicle = 100)", "setting": "heme oxygenase 1 (HO-1) [2]; dilution 1/50", "value": "168.32 ± 73.93"}, {"measurement": "Normalised HO-1 (vehicle = 100)", "setting": "heme oxygenase 1 (HO-1) [2]; dilution 1/100", "value": "49.08 ± 12.98"}]}, {"smiles": "C[S+]([O-])CCCCN=C=S", "note": "(stereo not drawn) [Sulforaphane]", "values": [{"measurement": "HO-1 (pg HO-1 per μg protein)", "setting": "heme oxygenase 1 (HO-1) [1]; 1 μM", "value": "280 ± 15", "unit": "pg HO-1 per μg protein"}, {"measurement": "HO-1 (pg HO-1 per μg protein)", "setting": "heme oxygenase 1 (HO-1) [1]; 2 μM", "value": "309 ± 45", "unit": "pg HO-1 per μg protein"}, {"measurement": "production of HO-1 (in words)", "setting": "heme oxygenase 1 (HO-1) [1]", "value": "increase the production of HO-1"}]}, {"smiles": "O=C1O[C@H]([C@@H](O)CO)C(O)=C1O", "note": "[ascorbic acid]", "values": [{"measurement": "reaction velocity, % of that with 500 μM ascorbic acid", "setting": "[3]; 0.75 mM ascorbic acid", "value": 90, "unit": "%"}, {"measurement": "reaction velocity, % of that with 500 μM ascorbic acid", "setting": "[3]; 1.0 mM ascorbic acid", "value": 73, "unit": "%"}, {"measurement": "effect on enzymic activity (in words)", "setting": "[3]", "value": "enzymic activity was enhanced greatly"}, {"measurement": "activation by ascorbate", "setting": "[7]", "value": "2-3 fold"}, {"measurement": "ascorbate concentrations for maximal activation of myrosinase", "setting": "[8]", "value": "0.7 to 5.0", "unit": "mM"}, {"measurement": "activation by ascorbate", "setting": "[9]", "value": "8-12 fold"}]}, {"smiles": "O=S(=O)(O)O", "note": "[sulphate]", "values": [{"measurement": "effect on enzymic activity (in words)", "setting": "[3]", "value": "inhibited activity competitively"}]}]}
